Patent US8486962B2, “Antifungal agents” (F2G Ltd., priority 2005, dated 2013)
Values after ≈ are worked out from the molar mass of the structure shown.

Columns and labels:
[1] = system: Aspergillus fumigatus AF293; test: MIC, YAG medium, Aspergillus fumigatus AF293; assay type: cell-based; details: Aspergillus fumigatus, AF293; YAG medium; read-out: MIC A Fum. 293
Outline: (§1)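 Broth microdilution over doubling dilutions (50-0.05 mg/L). C. albicans in RPMI with 2% glucose and 0.135M MOPS (pH7.0), 1-2×10^3 cfu/ml, 24-48 hrs at 35° C; MIC = >80% growth inhibition by OD485. Aspergillus spp. in YAG (1% glucose, 1% ammonium chloride, 0.5% yeast extract), 1-2×10^4 cfu/ml, 24 hrs, >70% inhibition.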

[2] = system: Aspergillus fumigatus AF210; test: MIC, YAG medium, Aspergillus fumigatus AF210; assay type: cell-based; details: Aspergillus fumigatus, AF210; YAG medium; read-out: MIC A Fum. 210
Outline: as §1

Aspergillus niger = test: MIC, YAG medium, Aspergillus niger; assay type: cell-based; details: Aspergillus niger; YAG medium; read-out: MIC A Niger 1
Outline: as §1

Aspergillus flavus = test: MIC, YAG medium, Aspergillus flavus; assay type: cell-based; details: Aspergillus flavus; YAG medium; read-out: MIC A Flavus 01
Outline: as §1

Aspergillus terreus = test: MIC, YAG medium, Aspergillus terreus; assay type: cell-based; details: Aspergillus terreus; YAG medium; read-out: MIC A Terreus 4
Outline: as §1

A Terreus 49 = test: MIC, YAG medium, A Terreus 49; assay type: cell-based, Aspergillus terreus; details: Aspergillus terreus; YAG medium; read-out: MIC A Terreus 49
Outline: as §1

## O=C(Nc1ccc(N2CCOCC2)cc1)C(=O)c1c(-c2ccccc2)cc2ccccn12 [Example 251, N-(4-Morpholin-4-yl-phenyl)-2-oxo-2-(2-phenyl-indolizin-3-yl)-acetamide]
[1]
  MIC: 0.12 µg/mL (≈ 0.282 µM)
[2]
  MIC: 0.12 µg/mL (≈ 0.282 µM)
Aspergillus niger
  MIC: 0.062 µg/mL (≈ 0.146 µM)
Aspergillus flavus
  MIC: 0.062 µg/mL (≈ 0.146 µM)
Aspergillus terreus
  MIC: 0.031 µg/mL (≈ 0.0729 µM)
A Terreus 49
  MIC: 0.015 µg/mL (≈ 0.0353 µM)

## CC(C)c1ccc(NC(=O)C(=O)c2c(-c3ccccc3)cc3ccccn23)cc1 [Example 252, N-(4-Isopropyl-phenyl)-2-oxo-2-(2-phenyl-indolizin-3-yl)-acetamide]
[1]
  MIC: 0.008 µg/mL (≈ 0.0209 µM)
[2]
  MIC: 0.062 µg/mL (≈ 0.162 µM)
Aspergillus niger
  MIC: 0.004 µg/mL (≈ 0.0105 µM)
Aspergillus flavus
  MIC: 0.015 µg/mL (≈ 0.0392 µM)
Aspergillus terreus
  MIC: 0.008 µg/mL (≈ 0.0209 µM)
A Terreus 49
  MIC: 0.002 µg/mL (≈ 0.00523 µM)

## CN(C)c1ccc(NC(=O)C(=O)c2c(-c3cccnc3)cc3ccccn23)cn1 [Example 253, N-(6-Dimethylamino-pyridin-3-yl)-2-oxo-2-(2-pyridin-3-yl-indolizin-3-yl)-acetamide]
[1]
  MIC: > 50 µg/mL
[2]
  MIC: > 50 µg/mL
Aspergillus niger
  MIC: > 50 µg/mL
Aspergillus flavus
  MIC: 25 µg/mL (≈ 64.9 µM)
Aspergillus terreus
  MIC: 12.5 µg/mL (≈ 32.4 µM)
A Terreus 49
  MIC: 12.5 µg/mL (≈ 32.4 µM)

## C=CCc1c(F)ccc(NC(=O)C(=O)c2c(-c3ccccc3)cc3ccccn23)c1OC [Example 254, N-(3-Allyl-4-fluoro-2-methoxy-phenyl)-2-oxo-2-(2-phenyl-indolizin-3-yl)-acetamide]
[1]
  MIC: 1.6 µg/mL (≈ 3.73 µM)
[2]
  MIC: 0.8 µg/mL (≈ 1.87 µM)
Aspergillus niger
  MIC: 0.4 µg/mL (≈ 0.934 µM)
Aspergillus flavus
  MIC: 0.4 µg/mL (≈ 0.934 µM)
Aspergillus terreus
  MIC: 0.1 µg/mL (≈ 0.233 µM)
A Terreus 49
  MIC: 0.2 µg/mL (≈ 0.467 µM)

## CC(O)c1ccc(NC(=O)C(=O)c2c(-c3ccccc3)cc3ccccn23)cc1 (stereo not drawn) [Example 255, N-[4-(1-Hydroxy-ethyl)-phenyl]-2-oxo-2-(2-phenyl-indolizin-3-yl)-acetamide]
[1]
  MIC: 1.6 µg/mL (≈ 4.16 µM)
[2]
  MIC: 0.8 µg/mL (≈ 2.08 µM)
Aspergillus niger
  MIC: 0.4 µg/mL (≈ 1.04 µM)
Aspergillus flavus
  MIC: 0.2 µg/mL (≈ 0.52 µM)
Aspergillus terreus
  MIC: 0.2 µg/mL (≈ 0.52 µM)
A Terreus 49
  MIC: 0.1 µg/mL (≈ 0.26 µM)

## Cn1ccc2cc(NC(=O)C(=O)c3c(-c4ccccc4)cc4ccccn34)ccc21 [Example 256, N-(1-Methyl-1H-indol-5-yl)-2-oxo-2-(2-phenyl-indolizin-3-yl)-acetamide]
[1]
  MIC: 0.015 µg/mL (≈ 0.0381 µM)
[2]
  MIC: 0.015 µg/mL (≈ 0.0381 µM)
Aspergillus niger
  MIC: 0.03 µg/mL (≈ 0.0762 µM)
Aspergillus flavus
  MIC: 0.04 µg/mL (≈ 0.102 µM)
Aspergillus terreus
  MIC: 0.001 µg/mL (≈ 0.00254 µM)
A Terreus 49
  MIC: 0.001 µg/mL (≈ 0.00254 µM)

## CS(=O)(=O)c1ccc(NC(=O)C(=O)c2c(-c3ccccc3)cc3ccccn23)cc1 [Example 257, N-(4-Methanesulfonyl-phenyl)-2-oxo-2-(2-phenyl-indolizin-3-yl)-acetamide]
[1]
  MIC: 6.25 µg/mL (≈ 14.9 µM)
[2]
  MIC: 3.1 µg/mL (≈ 7.41 µM)
Aspergillus niger
  MIC: 0.8 µg/mL (≈ 1.91 µM)
Aspergillus flavus
  MIC: 0.4 µg/mL (≈ 0.956 µM)
Aspergillus terreus
  MIC: 0.4 µg/mL (≈ 0.956 µM)
A Terreus 49
  MIC: 0.4 µg/mL (≈ 0.956 µM)

## O=C(Nc1ccc(N2CCSCC2)cc1)C(=O)c1c(-c2ccccc2)cc2ccccn12 [Example 258, 2-Oxo-2-(2-phenyl-indolizin-3-yl)-N-(4-thiomorpholin-4-yl-phenyl)-acetamide]
[1]
  MIC: 0.03 µg/mL (≈ 0.0679 µM)
[2]
  MIC: 0.015 µg/mL (≈ 0.034 µM)
Aspergillus niger
  MIC: 0.03 µg/mL (≈ 0.0679 µM)
Aspergillus flavus
  MIC: 0.015 µg/mL (≈ 0.034 µM)
Aspergillus terreus
  MIC: 0.008 µg/mL (≈ 0.0181 µM)
A Terreus 49
  MIC: 0.008 µg/mL (≈ 0.0181 µM)

## Cc1ccc(NC(=O)C(=O)c2c(-c3ccccc3)cc3ccccn23)c(C)c1C [Example 259, 2-Oxo-2-(2-phenyl-indolizin-3-yl)-N-(2,3,4-trimethyl-phenyl)-acetamide]
[1]
  MIC: 0.06 µg/mL (≈ 0.157 µM)
[2]
  MIC: 0.06 µg/mL (≈ 0.157 µM)
Aspergillus niger
  MIC: 0.03 µg/mL (≈ 0.0784 µM)
Aspergillus flavus
  MIC: 0.015 µg/mL (≈ 0.0392 µM)
Aspergillus terreus
  MIC: 0.002 µg/mL (≈ 0.00523 µM)
A Terreus 49
  MIC: 0.004 µg/mL (≈ 0.0105 µM)

## O=C(Nc1ccc(N2CCCC2)cc1)C(=O)c1c(-c2ccccc2)cc2ccccn12 [Example 260, 2-Oxo-2-(2-phenyl-indolizin-3-yl)-N-(4-pyrrolidin-1-yl-phenyl)-acetamide]
[1]
  MIC: 0.015 µg/mL (≈ 0.0366 µM)
[2]
  MIC: 0.03 µg/mL (≈ 0.0733 µM)
Aspergillus niger
  MIC: 0.015 µg/mL (≈ 0.0366 µM)
Aspergillus flavus
  MIC: 0.008 µg/mL (≈ 0.0195 µM)
Aspergillus terreus
  MIC: 0.008 µg/mL (≈ 0.0195 µM)
A Terreus 49
  MIC: 0.008 µg/mL (≈ 0.0195 µM)
